Experimental data reported in ChEMBL document CHEMBL4406913, “INCB050465 (Parsaclisib), a Novel Next-Generation Inhibitor of Phosphoinositide 3-Kinase Delta (PI3Kδ)” (ACS Med Chem Lett, 2019).
Calls of active or inactive are those of the source. The rule behind the calls is not given here.

How the values were obtained:
[1] = Hepatotoxicity in rat measured on day 28; assay type: toxicity; details: in vivo
[2] = Volume of distribution at steady state in rat at 4 mg/kg, iv measured for 24 hrs by LC-MS/MS analysis; assay type: ADME, organism-based; details: in vivo, read-out: Vdss
[3] = Hepatotoxicity in Beagle dog measured on day 28; assay type: toxicity, Canis lupus familiaris; details: in vivo
[4] = Terminal half life in rat at 4 mg/kg, iv measured for 24 hrs by LC-MS/MS analysis; assay type: ADME, organism-based; details: in vivo, read-out: beta t1/2 (converted)
[5] = Tmax in rat at 4 mg/kg, po measured for 24 hrs by LC-MS/MS analysis; assay type: ADME, organism-based; details: in vivo
Cytochrome P450 2D6 = Cytochrome P450 2D6 (Homo sapiens, UniProt P10635); experiment: Inhibition of CYP2D6 in human liver microsomes using bufuralol as substrate by LC/MS analysis; assay type: ADME
Cytochrome P450 2D6, sequence (P10635 whole entry): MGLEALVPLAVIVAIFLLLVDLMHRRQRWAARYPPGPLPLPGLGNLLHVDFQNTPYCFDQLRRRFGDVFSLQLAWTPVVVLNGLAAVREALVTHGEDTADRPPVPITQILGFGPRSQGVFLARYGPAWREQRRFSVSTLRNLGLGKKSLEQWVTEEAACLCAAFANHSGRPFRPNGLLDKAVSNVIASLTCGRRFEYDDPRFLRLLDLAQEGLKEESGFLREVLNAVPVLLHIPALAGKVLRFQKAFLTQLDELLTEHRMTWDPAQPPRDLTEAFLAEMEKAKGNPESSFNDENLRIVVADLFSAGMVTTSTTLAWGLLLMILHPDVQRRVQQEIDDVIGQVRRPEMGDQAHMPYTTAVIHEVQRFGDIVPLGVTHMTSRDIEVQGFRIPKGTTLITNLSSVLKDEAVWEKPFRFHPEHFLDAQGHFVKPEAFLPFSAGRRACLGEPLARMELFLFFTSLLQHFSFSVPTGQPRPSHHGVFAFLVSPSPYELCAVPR

Pfeiffer [6] = experiment: In vivo inhibition of PI3Kdelta in human Pfeiffer cells xenografted in SCID mouse assessed as reduction in AKT phosphorylation at Ser473 residue in tumor lysates at 1 mg/kg, po bid for 14 days measured at 4 hrs post last dose by Western blot analysis; assay type: functional, organism-based; details: Neoplasm, Lysate
Cytochrome P450 3A4 [7] = biological target: T1, Cytochrome P450 3A4 (Homo sapiens, UniProt P08684); experiment: Inhibition of CYP3A4 in human liver microsomes at 0.1 to 25 uM using testosterone as substrate by LC/MS analysis; assay type: ADME
T1 sequence (P08684 whole entry, canonical isoform): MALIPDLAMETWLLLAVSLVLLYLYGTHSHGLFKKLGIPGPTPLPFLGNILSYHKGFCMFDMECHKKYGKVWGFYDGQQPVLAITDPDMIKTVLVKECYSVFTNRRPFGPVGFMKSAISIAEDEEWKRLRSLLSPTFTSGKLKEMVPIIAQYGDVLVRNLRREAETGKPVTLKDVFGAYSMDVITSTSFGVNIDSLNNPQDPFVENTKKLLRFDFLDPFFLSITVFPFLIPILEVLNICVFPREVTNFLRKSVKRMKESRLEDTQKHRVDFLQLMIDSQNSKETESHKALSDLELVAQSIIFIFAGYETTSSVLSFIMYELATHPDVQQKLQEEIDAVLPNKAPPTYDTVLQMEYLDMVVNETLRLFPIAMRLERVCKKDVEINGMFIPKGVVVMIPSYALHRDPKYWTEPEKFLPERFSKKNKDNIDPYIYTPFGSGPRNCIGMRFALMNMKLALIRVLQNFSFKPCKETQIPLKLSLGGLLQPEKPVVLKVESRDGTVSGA

[8] = biological target: Phosphatidylinositol 4,5-bisphosphate 3-kinase catalytic subunit gamma isoform (Homo sapiens, UniProt P48736); experiment: Inhibition of PI3Kgamma (unknown origin) using D-myophosphatidylinositol 4,5-bisphosphate as substrate incubated for 120 mins by [gamma-33P]-ATP based scintillation counting method
Phosphatidylinositol 4,5-bisphosphate 3-kinase catalytic subunit gamma isoform, sequence (P48736 whole entry, canonical isoform): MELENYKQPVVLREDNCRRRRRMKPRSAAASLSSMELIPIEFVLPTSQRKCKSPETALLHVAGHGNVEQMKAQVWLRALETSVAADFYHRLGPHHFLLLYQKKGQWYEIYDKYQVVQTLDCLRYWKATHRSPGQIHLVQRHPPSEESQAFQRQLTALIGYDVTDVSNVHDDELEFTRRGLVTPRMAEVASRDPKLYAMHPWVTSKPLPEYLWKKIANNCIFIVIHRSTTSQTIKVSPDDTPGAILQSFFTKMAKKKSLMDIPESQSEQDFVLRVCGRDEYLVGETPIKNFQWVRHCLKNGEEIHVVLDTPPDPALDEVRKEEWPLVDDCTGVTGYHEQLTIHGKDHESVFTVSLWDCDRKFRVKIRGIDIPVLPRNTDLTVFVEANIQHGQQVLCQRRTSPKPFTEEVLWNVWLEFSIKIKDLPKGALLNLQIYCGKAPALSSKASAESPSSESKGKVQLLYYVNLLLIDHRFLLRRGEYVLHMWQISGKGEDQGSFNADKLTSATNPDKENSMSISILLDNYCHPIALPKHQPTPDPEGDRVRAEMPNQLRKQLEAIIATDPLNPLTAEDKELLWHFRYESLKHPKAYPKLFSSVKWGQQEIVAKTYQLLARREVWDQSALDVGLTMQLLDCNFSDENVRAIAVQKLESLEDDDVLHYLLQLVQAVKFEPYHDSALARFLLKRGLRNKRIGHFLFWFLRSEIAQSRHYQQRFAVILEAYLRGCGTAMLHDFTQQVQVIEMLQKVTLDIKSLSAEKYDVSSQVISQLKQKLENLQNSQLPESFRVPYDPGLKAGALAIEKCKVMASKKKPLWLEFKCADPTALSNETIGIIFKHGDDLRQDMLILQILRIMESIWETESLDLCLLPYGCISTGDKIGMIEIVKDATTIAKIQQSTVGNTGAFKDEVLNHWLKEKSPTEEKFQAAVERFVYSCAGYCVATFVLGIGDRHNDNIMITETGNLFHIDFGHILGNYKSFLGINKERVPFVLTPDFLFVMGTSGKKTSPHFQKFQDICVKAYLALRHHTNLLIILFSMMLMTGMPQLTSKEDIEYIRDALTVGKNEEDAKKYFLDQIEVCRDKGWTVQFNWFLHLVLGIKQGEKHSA

Cytochrome P450 3A4 [9] = biological target: T1, Cytochrome P450 3A4; experiment: Inhibition of CYP3A4 in human liver microsomes at 0.1 to 25 uM using midazolam as substrate by LC/MS analysis; assay type: ADME
Cytochrome P450 2C8 = biological target: T2, Cytochrome P450 2C8 (Homo sapiens, UniProt P10632); experiment: Inhibition of CYP2C8 in human liver microsomes at 0.1 to 25 uM using amodiaquine as substrate by LC/MS analysis; assay type: ADME
T2 sequence (P10632 whole entry): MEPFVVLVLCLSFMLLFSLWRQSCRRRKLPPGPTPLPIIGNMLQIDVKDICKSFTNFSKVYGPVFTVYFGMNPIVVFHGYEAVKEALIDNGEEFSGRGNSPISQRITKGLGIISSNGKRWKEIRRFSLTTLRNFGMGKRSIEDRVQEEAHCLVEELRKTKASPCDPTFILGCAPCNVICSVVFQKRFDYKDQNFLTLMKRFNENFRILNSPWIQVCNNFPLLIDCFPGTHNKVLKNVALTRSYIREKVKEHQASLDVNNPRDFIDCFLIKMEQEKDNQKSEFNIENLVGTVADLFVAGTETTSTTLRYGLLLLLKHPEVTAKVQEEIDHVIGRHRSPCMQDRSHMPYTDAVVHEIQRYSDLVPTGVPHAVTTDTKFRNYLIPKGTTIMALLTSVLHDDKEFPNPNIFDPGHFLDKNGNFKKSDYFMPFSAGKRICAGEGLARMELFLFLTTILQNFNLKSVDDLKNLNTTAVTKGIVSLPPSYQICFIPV

[10] = biological target: Phosphatidylinositol 4,5-bisphosphate 3-kinase catalytic subunit beta isoform (Homo sapiens, UniProt P42338); experiment: Inhibition of PI3Kbeta (unknown origin) using D-myophosphatidylinositol 4,5-bisphosphate as substrate incubated for 120 mins by [gamma-33P]-ATP based scintillation counting method
Phosphatidylinositol 4,5-bisphosphate 3-kinase catalytic subunit beta isoform, sequence (P42338 whole entry, canonical isoform): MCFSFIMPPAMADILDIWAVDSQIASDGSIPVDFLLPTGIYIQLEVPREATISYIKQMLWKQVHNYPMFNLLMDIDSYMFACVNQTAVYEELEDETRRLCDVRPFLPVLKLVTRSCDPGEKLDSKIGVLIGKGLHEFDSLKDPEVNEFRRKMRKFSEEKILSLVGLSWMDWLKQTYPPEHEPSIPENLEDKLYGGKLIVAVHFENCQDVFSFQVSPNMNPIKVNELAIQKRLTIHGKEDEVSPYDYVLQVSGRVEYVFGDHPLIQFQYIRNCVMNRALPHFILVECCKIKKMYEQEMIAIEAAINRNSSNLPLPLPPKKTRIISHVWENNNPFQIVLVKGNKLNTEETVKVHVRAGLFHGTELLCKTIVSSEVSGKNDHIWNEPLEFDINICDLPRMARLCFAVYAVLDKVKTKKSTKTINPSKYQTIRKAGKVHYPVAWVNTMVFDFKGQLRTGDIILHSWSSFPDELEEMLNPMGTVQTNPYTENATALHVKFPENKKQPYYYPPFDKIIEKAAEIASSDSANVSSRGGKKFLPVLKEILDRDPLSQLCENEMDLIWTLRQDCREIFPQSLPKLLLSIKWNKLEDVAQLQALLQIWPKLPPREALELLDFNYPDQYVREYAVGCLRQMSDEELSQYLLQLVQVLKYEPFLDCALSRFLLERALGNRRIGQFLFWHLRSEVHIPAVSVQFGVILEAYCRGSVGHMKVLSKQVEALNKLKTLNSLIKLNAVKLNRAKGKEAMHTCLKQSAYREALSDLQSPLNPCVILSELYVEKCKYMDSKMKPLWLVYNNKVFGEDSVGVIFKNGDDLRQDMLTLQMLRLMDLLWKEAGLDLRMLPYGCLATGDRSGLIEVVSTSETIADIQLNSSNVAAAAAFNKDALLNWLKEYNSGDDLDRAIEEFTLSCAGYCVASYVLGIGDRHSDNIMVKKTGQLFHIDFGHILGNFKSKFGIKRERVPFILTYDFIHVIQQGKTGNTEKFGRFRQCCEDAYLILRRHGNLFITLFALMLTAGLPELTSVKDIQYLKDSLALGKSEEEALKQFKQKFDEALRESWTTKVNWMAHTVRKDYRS

[11] = Tmax in cynomolgus monkey at 4 mg/kg, po measured for 24 hrs by LC-MS/MS analysis; assay type: ADME, organism-based, Macaca fascicularis; details: in vivo
Cytochrome P450 2C9 = Cytochrome P450 2C9 (Homo sapiens, UniProt P11712); experiment: Inhibition of CYP2C9 in human liver microsomes at 0.1 to 25 uM using diclofenac as substrate by LC/MS analysis; assay type: ADME
Cytochrome P450 2C9, sequence (P11712 whole entry): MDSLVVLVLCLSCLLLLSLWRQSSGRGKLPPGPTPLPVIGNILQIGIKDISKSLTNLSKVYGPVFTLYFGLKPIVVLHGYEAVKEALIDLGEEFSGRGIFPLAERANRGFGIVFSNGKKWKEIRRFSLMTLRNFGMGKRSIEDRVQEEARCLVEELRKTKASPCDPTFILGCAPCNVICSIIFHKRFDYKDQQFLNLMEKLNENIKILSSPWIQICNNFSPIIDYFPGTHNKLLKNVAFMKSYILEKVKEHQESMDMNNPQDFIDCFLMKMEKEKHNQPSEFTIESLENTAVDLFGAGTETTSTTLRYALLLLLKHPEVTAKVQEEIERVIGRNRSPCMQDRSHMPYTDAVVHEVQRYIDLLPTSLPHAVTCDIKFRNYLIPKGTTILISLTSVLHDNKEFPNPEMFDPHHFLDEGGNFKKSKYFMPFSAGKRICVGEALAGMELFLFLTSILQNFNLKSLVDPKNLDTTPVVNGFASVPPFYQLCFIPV

Pfeiffer [12] = experiment: Antitumor activity against human Pfeiffer cells xenografted in SCID mouse assessed as reduction in tumor growth at 1 mg/kg, po bid for 14 days measured 2-3 times weekly by digital caliper method; assay type: functional, organism-based
[13] = Oral bioavailability in Beagle dog at 4 mg/kg measured for 24 hrs by LC-MS/MS analysis; assay type: ADME, organism-based, Canis lupus familiaris; details: in vivo
SU-DHL-6 = experiment: Cytotoxicity against human SUDHL6 cells assessed as reduction in cell viability incubated for 4 days by celltiter glo luminescent assay; assay type: functional, cell-based; details: SU-DHL-6, 96 h
Cytochrome P450 2C19 = Cytochrome P450 2C19 (Homo sapiens, UniProt P33261); experiment: Inhibition of CYP2C19 in human liver microsomes at 0.1 to 25 uM using S-mephenytoin as substrate by LC/MS analysis; assay type: ADME
Cytochrome P450 2C19, sequence (P33261 whole entry): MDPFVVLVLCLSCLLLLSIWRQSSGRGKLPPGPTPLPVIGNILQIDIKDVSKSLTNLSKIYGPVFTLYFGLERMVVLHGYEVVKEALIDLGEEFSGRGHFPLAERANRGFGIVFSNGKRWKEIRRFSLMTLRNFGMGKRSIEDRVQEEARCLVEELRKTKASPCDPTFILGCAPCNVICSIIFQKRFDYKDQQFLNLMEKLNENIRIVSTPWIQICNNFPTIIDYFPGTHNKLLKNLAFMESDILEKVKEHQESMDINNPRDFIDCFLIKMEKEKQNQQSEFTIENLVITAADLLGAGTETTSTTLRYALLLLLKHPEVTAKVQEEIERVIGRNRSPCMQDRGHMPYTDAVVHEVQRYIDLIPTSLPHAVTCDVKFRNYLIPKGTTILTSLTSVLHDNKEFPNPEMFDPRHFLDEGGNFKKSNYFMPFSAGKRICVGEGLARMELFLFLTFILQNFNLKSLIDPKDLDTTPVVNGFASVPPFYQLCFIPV

[14] = Volume of distribution at steady state in cynomolgus monkey at 2 mg/kg, iv measured for 24 hrs by LC-MS/MS analysis; assay type: ADME, organism-based, Macaca fascicularis; details: in vivo, read-out: Vdss
[15] = Clearance in Beagle dog at 2 mg/kg, iv measured for 24 hrs by LC-MS/MS analysis; assay type: ADME, organism-based, Canis lupus familiaris; details: in vivo
[16] = Oral bioavailability in cynomolgus monkey at 4 mg/kg measured for 24 hrs by LC-MS/MS analysis; assay type: ADME, organism-based, Macaca fascicularis; details: in vivo

CCOc1c([C@H](C)n2nc(C)c3c(N)ncnc32)cc(Cl)c(F)c1[C@@H]1CNC(=O)C1 [PARSACLISIB]
Activity [1]: Non-Toxic
Vd [2]: 1.54 L/kg
Activity [3]: Non-Toxic
half-life [4]: 4 h
Tmax [5]: 0.3 h
inhibition (INH) (Cytochrome P450 2D6): Not Active
inhibition (Pfeiffer [6]): Active
inhibition (INH) (Cytochrome P450 3A4 [7]): Not Active
IC50 [8]: > 10 µM
inhibition (INH) (Cytochrome P450 3A4 [9]): Not Active
inhibition (INH) (Cytochrome P450 2C8): Not Active
IC50 [10]: > 20 µM
Tmax [11]: 2.5 h
inhibition (INH) (Cytochrome P450 2C9): Not Active
inhibition (Pfeiffer [12]): Active
bioavailability [13]: 100%
IC50 (SU-DHL-6): 0.0016 µM
inhibition (INH) (Cytochrome P450 2C19): Not Active
Vd [14]: 0.72 L/kg
CL [15]: 2%
bioavailability [16]: 79%
